Data as given in US20250197387A1, “BCL-XL DEGRADERS AND USES THEREOF” (Kymera Therapeutics, Inc., priority 2021, published 2025).

Assays:
Type in all cases: cell-based
Caki-2 cells = assay: CTG (CellTiter-Glo) cell viability assay, Caki-2; conditions: Homo sapiens, 72 h, 3 day incubation, read-out: CTG Chempartner - Caki-2 3 day: Average external-IC50
Outline: (§1)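 MOLT-4 and Caki-2 cells were seeded at 10,000 per well and treated with a 9-point, 1:3 dilution series from 10 μM top concentration (0.2% DMSO). After 3 days at 37 °C, 5% CO2, viability was read by CellTiter-Glo luminescence and IC50 fitted by three-parameter logistic.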

MOLT-4 cells = assay: CTG (CellTiter-Glo) cell viability assay, MOLT-4; conditions: Homo sapiens, MOLT-4, 72 h, 3 day incubation, read-out: CTG Cell Viability Assay - MOLT-4 3 day: Average external-IC50
Outline: as §1

BCL-XL = biological target: T1, BCL-XL (Homo sapiens, UniProt Q07817); assay: Bcl-xL ELISA degradation in MOLT-4 cells, 6 h; conditions: for DC50: read-out: Bcl-xL ELISA in MOLT-4 degradation 6 h: Mean external-Abs DC50
T1 construct: endogenous in cells; host or cells: MOLT-4
Method: The letter codes for BCL-XL DC50 include: A (<0.01 μM); B (0.01-0.1 μM); C (>[…]); D (>0.5-1.0 μM); and E (>1.0 μM). The letter codes for Dmax % include A (>75%); B (50 to 75%); C (<50%).

T1 sequence (Q07817 whole entry): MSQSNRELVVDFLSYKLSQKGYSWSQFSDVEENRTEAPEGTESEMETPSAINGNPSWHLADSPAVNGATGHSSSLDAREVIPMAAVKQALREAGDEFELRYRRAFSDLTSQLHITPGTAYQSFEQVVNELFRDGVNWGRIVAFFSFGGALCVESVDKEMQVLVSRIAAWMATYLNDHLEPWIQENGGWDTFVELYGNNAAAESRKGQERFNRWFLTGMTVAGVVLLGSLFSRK

C#Cc1ccc(CNC(=O)[C@@H]2C[C@@H](O)CN2C(=O)[C@@H](NC(=O)CCNCCS(=O)(=O)NC(=O)c2nc(N3CCc4cccc(C(=O)Nc5nc6cccnc6s5)c4C3)ccc2-c2cnn(CC3CCCCC3)c2C)C(C)(C)C)cc1 [I-375]
IC50 (Caki-2 cells): > 10 µM | IC50 (MOLT-4 cells): 1 to 3 µM | Dmax (BCL-XL): > 75% | DC50 (BCL-XL): 0.01 to 0.1 µM

Cc1cc(N(C)c2ccc(-c3cnn(CC45CC6CC(CC(C6)C4)C5)c3C)c(C(=O)NS(=O)(=O)CCCCCC(=O)N[C@H](C(=O)N3C[C@H](O)C[C@H]3C(=O)N[C@H](C)c3ccc4c(c3)c(C)nn4C)C(C)(C)C)n2)nnc1Nc1nc2ccccc2s1 (single isomer, unassigned) [I-492]
IC50 (Caki-2 cells): > 10 µM | IC50 (MOLT-4 cells): 0.1 to 1 µM | Dmax (BCL-XL): > 75% | DC50 (BCL-XL): 0.01 to 0.1 µM

Cc1cc(N(C)c2ccc(-c3cnn(CC45CC6CC(CC(C6)C4)C5)c3C)c(C(=O)NS(=O)(=O)CCCCCC(=O)N[C@H](C(=O)N3C[C@H](O)C[C@H]3C(=O)N[C@@H](C)c3ccc(-c4scnc4C)cc3)C(C)(C)C)n2)nnc1Nc1nc2ccccc2s1 [I-356]
IC50 (Caki-2 cells): > 10 µM | IC50 (MOLT-4 cells): < 0.1 µM | Dmax (BCL-XL): > 75% | DC50 (BCL-XL): < 0.01 µM

C#Cc1ccc([C@H](COC)NC(=O)[C@@H]2C[C@@H](O)CN2C(=O)[C@@H](NC(=O)CCCCCS(=O)(=O)NC(=O)c2nc(N(C)c3cc(C)c(Nc4nc5ccccc5s4)nn3)ccc2-c2cnn(CC34CC5CC(CC(C5)C3)C4)c2C)C(C)(C)C)cc1 [I-476]
IC50 (Caki-2 cells): > 10 µM | IC50 (MOLT-4 cells): < 0.1 µM | Dmax (BCL-XL): > 75% | DC50 (BCL-XL): < 0.01 µM

Cc1ncsc1-c1ccc([C@H](C)NC(=O)[C@@H]2C[C@@H](O)CN2C(=O)[C@@H](NC(=O)CCCCCS(=O)(=O)NC(=O)c2nc(N3CCc4cccc(C(=O)Nc5nc6ccccc6s5)c4C3)ccc2-c2ccnc(N(C)C(C)C)c2C)C(C)(C)C)cc1 [I-333]
IC50 (Caki-2 cells): > 10 µM | IC50 (MOLT-4 cells): 0.1 to 1 µM | Dmax (BCL-XL): 50 to 75% | DC50 (BCL-XL): 0.1 to 0.5 µM

C#Cc1ccc(CNC(=O)[C@@H]2C[C@@H](O)CN2C(=O)[C@@H](NC(=O)CCCS(=O)(=O)NC(=O)c2nc(N3CCc4cccc(C(=O)Nc5nc6cccnc6s5)c4C3)ccc2-c2cnn(CC3CCCCC3)c2C)C(C)(C)C)cc1 [I-362]
IC50 (Caki-2 cells): > 10 µM | IC50 (MOLT-4 cells): 0.1 to 1 µM | Dmax (BCL-XL): > 75% | DC50 (BCL-XL): 0.01 to 0.1 µM

C#Cc1ccc([C@H](CO)NC(=O)[C@@H]2C[C@@H](O)CN2C(=O)[C@@H](NC(=O)CCNCCS(=O)(=O)NC(=O)c2nc(N3CCc4cccc(C(=O)Nc5nc6cccnc6s5)c4C3)ccc2-c2cnn(CC(C)C)c2C)C(C)(C)C)cc1 [I-414]
IC50 (Caki-2 cells): > 10 µM | IC50 (MOLT-4 cells): > 3 µM | Dmax (BCL-XL): 50 to 75% | DC50 (BCL-XL): > 1 µM

Cc1ncsc1-c1ccc([C@H](CO)NC(=O)[C@@H]2C[C@@H](O)CN2C(=O)[C@@H](NC(=O)CCNCCS(=O)(=O)NC(=O)c2nc(N3CCc4cccc(C(=O)Nc5nc6cccnc6s5)c4C3)ccc2-c2cnn(CC3CCCCC3)c2C)C(C)(C)C)cc1 [I-377]
IC50 (Caki-2 cells): > 10 µM | IC50 (MOLT-4 cells): 1 to 3 µM | Dmax (BCL-XL): > 75% | DC50 (BCL-XL): < 0.01 µM

Cc1ncsc1-c1ccc([C@H](C)NC(=O)[C@@H]2C[C@@H](O)CN2C(=O)[C@@H](NC(=O)C2CCN(c3ccc(S(=O)(=O)NC(=O)c4nc(N5CCc6cccc(C(=O)Nc7nc8ccccc8s7)c6C5)ccc4-c4ccnc(OC(C)C)c4C)cc3)CC2)C(C)(C)C)cc1 [I-300]
IC50 (Caki-2 cells): 1 to 10 µM | IC50 (MOLT-4 cells): 0.1 to 1 µM | Dmax (BCL-XL): 50 to 75% | DC50 (BCL-XL): 0.1 to 0.5 µM

CCN1CCN(Cc2cc(S(=O)(=O)NC(=O)c3nc(N4CCc5cccc(C(=O)Nc6nc7ccccc7s6)c5C4)ccc3-c3cnn(CC4CCCCC4)c3C)ccc2N2CCC(C(=O)N[C@H](C(=O)N3C[C@H](O)C[C@H]3C(=O)NCc3ccc(-c4scnc4C)cc3)C(C)(C)C)CC2)CC1 [I-341]
IC50 (Caki-2 cells): > 10 µM | IC50 (MOLT-4 cells): 0.1 to 1 µM | Dmax (BCL-XL): > 75% | DC50 (BCL-XL): 0.01 to 0.1 µM

C#Cc1ccc(CNC(=O)[C@@H]2C[C@@H](O)CN2C(=O)[C@@H](NC(=O)CCCCCS(=O)(=O)NC(=O)c2nc(N3CCc4cccc(C(=O)Nc5nc6cccnc6s5)c4C3)ccc2-c2cnn(CC3CCCCC3)c2C)C(C)(C)C)cc1 [I-352]
IC50 (Caki-2 cells): > 10 µM | IC50 (MOLT-4 cells): < 0.1 µM | Dmax (BCL-XL): > 75% | DC50 (BCL-XL): < 0.01 µM

Cc1ncsc1-c1ccc([C@H](C)NC(=O)[C@@H]2C[C@@H](O)CN2C(=O)[C@@H](NC(=O)CCCCCS(=O)(=O)NC(=O)c2nc(N3CCc4cccc(C(=O)Nc5nc6c(F)cccc6s5)c4C3)ccc2-c2cnn(CC3CCCCC3)c2C)C(C)(C)C)cc1 [I-459]
IC50 (Caki-2 cells): > 10 µM | IC50 (MOLT-4 cells): < 0.1 µM | Dmax (BCL-XL): > 75% | DC50 (BCL-XL): < 0.01 µM

Cc1cc(N(C)c2ccc(-c3cnn(CC(C)(C)C)c3C)c(C(=O)NS(=O)(=O)c3ccc(N4CCC(C(=O)N[C@H](C(=O)N5C[C@H](O)C[C@H]5C(=O)N[C@@H](C)c5ccc(-c6scnc6C)cc5)C(C)(C)C)CC4)cc3)n2)nnc1Nc1nc2cccnc2s1 [I-456]
IC50 (Caki-2 cells): > 10 µM | IC50 (MOLT-4 cells): > 3 µM | Dmax (BCL-XL): < 50% | DC50 (BCL-XL): > 1 µM
